Experimental data: patent US8937088B2, “Ureas for the treatment and prevention of cancer” (Astar Biotech LLC, priority 2011, dated 2015)
Like-named read-outs stand apart in the source and are kept apart here.

Tests used:
[1] = molecular target: BRAF (Homo sapiens, UniProt P15056); experiment: In vitro kinase assay (Invitrogen SelectScreen Profiling Service), BRAF; assay type: biochemical
Method: (§1) Biological Test 1. In Vitro Kinase Assay for BRAF, FLT3 and KDR(VEGFR2) The inhibitory activities of the compounds of the invention were measured by Invitrogen's SelectScreen® Profiling Service.

[2] = molecular target: T1, FLT3 (Homo sapiens, UniProt P36888); experiment: In vitro kinase assay (Invitrogen SelectScreen Profiling Service), FLT3; assay type: biochemical; details: FLT3, 0.1 μM
T1 sequence (P36888 27-993): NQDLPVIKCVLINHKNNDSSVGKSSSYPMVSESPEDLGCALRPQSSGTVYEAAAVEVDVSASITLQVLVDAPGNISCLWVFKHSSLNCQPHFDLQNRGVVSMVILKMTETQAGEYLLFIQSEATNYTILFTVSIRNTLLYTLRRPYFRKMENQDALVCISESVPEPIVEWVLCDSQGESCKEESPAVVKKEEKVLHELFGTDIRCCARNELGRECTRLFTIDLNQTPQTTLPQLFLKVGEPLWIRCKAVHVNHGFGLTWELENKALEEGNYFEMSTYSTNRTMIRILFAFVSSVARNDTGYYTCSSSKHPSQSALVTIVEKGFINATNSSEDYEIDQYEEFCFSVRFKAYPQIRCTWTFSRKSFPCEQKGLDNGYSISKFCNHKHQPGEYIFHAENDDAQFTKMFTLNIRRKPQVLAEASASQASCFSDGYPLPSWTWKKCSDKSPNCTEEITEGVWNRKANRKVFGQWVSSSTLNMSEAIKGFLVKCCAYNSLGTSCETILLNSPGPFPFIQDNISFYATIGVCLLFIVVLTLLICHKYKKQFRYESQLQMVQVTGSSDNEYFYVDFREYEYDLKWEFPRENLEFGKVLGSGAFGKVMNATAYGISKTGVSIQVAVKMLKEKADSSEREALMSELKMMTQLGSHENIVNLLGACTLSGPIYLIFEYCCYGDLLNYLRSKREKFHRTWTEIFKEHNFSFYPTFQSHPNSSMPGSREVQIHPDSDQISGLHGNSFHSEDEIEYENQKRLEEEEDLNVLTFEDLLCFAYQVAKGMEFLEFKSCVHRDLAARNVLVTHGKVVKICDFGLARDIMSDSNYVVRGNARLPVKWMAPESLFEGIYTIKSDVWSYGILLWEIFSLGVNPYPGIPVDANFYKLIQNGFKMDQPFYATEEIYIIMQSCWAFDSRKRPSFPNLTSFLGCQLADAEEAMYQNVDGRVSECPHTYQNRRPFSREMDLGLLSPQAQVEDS
Method: as §1

[3] = molecular target: KDR(VEGFR2) (Homo sapiens, UniProt P35968); experiment: In vitro kinase assay (Invitrogen SelectScreen Profiling Service), KDR; assay type: biochemical
KDR(VEGFR2), sequence (P35968 20-1356): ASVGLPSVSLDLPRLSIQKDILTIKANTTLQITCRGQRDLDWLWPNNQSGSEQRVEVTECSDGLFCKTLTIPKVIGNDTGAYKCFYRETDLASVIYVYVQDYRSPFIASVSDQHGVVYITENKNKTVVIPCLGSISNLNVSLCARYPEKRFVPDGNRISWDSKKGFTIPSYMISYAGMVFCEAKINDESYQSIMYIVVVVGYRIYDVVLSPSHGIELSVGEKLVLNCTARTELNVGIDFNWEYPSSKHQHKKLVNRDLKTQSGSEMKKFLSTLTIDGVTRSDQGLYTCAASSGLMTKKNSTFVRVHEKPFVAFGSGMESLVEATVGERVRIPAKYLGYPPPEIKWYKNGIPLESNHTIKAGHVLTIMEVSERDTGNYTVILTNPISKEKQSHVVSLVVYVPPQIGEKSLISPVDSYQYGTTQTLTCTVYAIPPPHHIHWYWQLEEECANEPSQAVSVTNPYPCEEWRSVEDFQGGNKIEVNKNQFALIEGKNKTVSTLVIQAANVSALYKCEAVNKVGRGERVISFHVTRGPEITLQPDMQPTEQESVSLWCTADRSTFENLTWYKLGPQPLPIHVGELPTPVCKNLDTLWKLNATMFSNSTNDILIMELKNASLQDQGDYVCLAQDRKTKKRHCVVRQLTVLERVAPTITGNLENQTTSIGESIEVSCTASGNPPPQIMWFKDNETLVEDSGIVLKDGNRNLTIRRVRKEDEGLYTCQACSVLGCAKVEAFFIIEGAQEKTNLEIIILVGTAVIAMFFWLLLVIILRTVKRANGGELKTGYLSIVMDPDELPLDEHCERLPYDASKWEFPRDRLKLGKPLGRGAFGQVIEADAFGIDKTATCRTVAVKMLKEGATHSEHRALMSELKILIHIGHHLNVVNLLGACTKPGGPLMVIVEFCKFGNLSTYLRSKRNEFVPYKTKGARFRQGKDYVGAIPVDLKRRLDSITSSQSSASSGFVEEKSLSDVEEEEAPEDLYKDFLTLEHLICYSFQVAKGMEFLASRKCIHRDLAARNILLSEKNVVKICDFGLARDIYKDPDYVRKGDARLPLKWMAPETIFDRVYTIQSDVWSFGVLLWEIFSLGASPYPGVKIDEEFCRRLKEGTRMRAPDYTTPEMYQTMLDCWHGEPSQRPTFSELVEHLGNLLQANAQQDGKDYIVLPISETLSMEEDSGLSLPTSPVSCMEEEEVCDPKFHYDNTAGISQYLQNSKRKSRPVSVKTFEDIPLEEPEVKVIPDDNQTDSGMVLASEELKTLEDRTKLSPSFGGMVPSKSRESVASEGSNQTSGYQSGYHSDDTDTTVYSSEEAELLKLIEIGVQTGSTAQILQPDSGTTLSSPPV
Method: as §1

[4] = tested on: Hep3B (human hepatoma cell line); experiment: Cell death detection, trypan blue exclusion assay, Hep3B; assay type: cell-based; details: 5-day treatment
Method: (§2) Biological Test 2. Cell Death Detection Using Trypan Blue Exclusion Assay.
(§3) After drug treatment, cells were harvested by trypsinization with trypsin/EDTA for 10 min at 37° C. As some apoptotic cells detached from the culture substratum into the medium, these cells were also collected by centrifugation of the medium at 1,200 rpm for 5 min. The pooled cell pellets were resuspended and mixed with trypan blue dye. After Trypan blue stain was done, cells were counted by using a light microscope and a hemocytometer. Blue dye-incorporating cells were scored as being dead. Five hundred cells from randomly chosen fields were counted, and the number of dead cells was counted and expressed as a percentage of the total number of cells counted as shown in Tables 2 to 8 below.

[5] = tested on: HepG2 (human Hepatocellular carcinoma cell line); experiment: Cell death detection, trypan blue exclusion assay, HepG2; assay type: cell-based; details: HepG2, 5-day treatment
Method: as §2, §3

[6] = tested on: HT29 (human colon adenocarcinoma cell line); experiment: Cell death detection, trypan blue exclusion assay, HT29; assay type: cell-based; details: HT29, 5-day treatment
Method: as §2, §3

[7] = tested on: HUH7 (human hepatoma cell line); experiment: Cell death detection, trypan blue exclusion assay, HUH7; assay type: cell-based; details: Huh-7, 168 h, HUH7, 7-day treatment, read-out: Cell Death (%) at Tested Concentration
Method: as §2, §3

[8] = tested on: LNCaP (human prostate adenocarcinoma cell line); experiment: Cell death detection, trypan blue exclusion assay, LNCaP; assay type: cell-based; details: read-out: Cell Death (%) at Tested Concentration
Method: as §2, §3

[9] = tested on: HUH7 (human hepatoma cell line); experiment: Cell death detection, trypan blue exclusion assay, HUH7, in combination with AZD-6244; assay type: cell-based; details: HUH7, 6-day treatment, compound 0.5 μM
Method: as §2, §3

[10] = tested on: patient-derived primary squamous lung 14531 tumor; experiment: In vivo activity in SCID mouse model with lung cancer, 30-day treatment; details: patient-derived primary squamous lung 14531 tumor in mouse, compared to the control
Source text: Biological Test 4. In Vivo Activity in […] SCID Mouse Model with Lung Cancer
Biological Test 5. In Vivo Activity in Senograph SCID Mouse Model with Lung Cancer

BRAF, sequence (P15056 whole entry): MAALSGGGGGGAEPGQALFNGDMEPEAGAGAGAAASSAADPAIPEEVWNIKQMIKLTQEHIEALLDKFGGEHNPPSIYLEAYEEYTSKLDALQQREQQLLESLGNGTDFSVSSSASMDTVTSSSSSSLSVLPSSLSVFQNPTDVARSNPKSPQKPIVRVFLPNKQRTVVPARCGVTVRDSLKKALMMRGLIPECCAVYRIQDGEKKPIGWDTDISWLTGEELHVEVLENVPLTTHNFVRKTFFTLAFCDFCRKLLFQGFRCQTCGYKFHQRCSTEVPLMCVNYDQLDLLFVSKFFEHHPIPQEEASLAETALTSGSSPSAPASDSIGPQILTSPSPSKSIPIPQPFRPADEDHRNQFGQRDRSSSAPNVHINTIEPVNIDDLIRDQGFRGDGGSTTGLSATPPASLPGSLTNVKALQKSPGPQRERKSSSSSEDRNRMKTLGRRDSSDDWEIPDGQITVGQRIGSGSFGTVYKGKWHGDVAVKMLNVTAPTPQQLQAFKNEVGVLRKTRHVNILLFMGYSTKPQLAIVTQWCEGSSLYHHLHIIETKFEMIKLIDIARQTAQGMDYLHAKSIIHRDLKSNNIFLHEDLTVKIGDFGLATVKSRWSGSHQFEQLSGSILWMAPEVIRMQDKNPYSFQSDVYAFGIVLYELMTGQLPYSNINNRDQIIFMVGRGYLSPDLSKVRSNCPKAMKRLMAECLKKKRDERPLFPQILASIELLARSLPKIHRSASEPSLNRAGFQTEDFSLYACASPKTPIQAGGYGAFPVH

SMILES | Cell Death (%) at Tested Concentration ([4]; 0.25 uM) [%] | Cell Death (%) at Tested Concentration ([4]; 3.0 uM) [%] | Cell Death (%) at Tested Concentration ([4]; 5.0 uM) [%] | Cell Death (%) at Tested Concentration ([5]; 0.25 uM) [%] | Cell Death (%) at Tested Concentration ([5]; 3.0 uM) [%] | Cell Death (%) at Tested Concentration ([5]; 5.0 uM) [%] | Cell Death (%) at Tested Concentration ([6]; 2.5 uM) [%] | Cell Death (%) at Tested Concentration ([6]; 5.0 uM) [%] | Cell Death (%) at Tested Concentration ([6]; 10 uM) [%] | cytotoxicity at 1 µM [7] [%] | cytotoxicity at 2.5 µM [7] [%] | cytotoxicity at 5 µM [7] [%] | cytotoxicity at 7.5 µM [7] [%] | cytotoxicity at 10 µM [7] [%] | cytotoxicity at 1 µM ([8]; 72 h, 3-day treatment) [%] | cytotoxicity at 2.5 µM ([8]; 72 h, 3-day treatment) [%] | cytotoxicity at 5 µM ([8]; 72 h, 3-day treatment) [%] | cytotoxicity at 7.5 µM ([8]; 72 h, 3-day treatment) [%] | cytotoxicity at 10 µM ([8]; 72 h, 3-day treatment) [%] | cytotoxicity at 1 µM ([8]; 168 h, 7-day treatment) [%] | also measured
CNC(=O)c1cc(Oc2ccc(NC(=O)Nc3ccc(Cl)c(S(F)(F)(F)(F)F)c3)c(F)c2)ccn1 [Example 4, 4-[4-({[4-chloro-3-(pentafluoro-λ^6-sulfanyl)phenyl]carbamoyl}amino)-3-fluorophenoxy]-N-methylpyridine-2-carboxamide] | 4.6 | 67.2 | 96.7 | 1.9 | 4.5 | 27.6 | 11.6 | 13.8 | 44.6 | 2.8 | 3.1 | 59.8 | 91.4 | 93.4 | 1.8 | 1.4 | 2.8 | 46.8 | 94.8 | 1.4 | inhibition at 0.1 µM [1]: 8%; inhibition at 0.1 µM [2]: 51%; inhibition at 0.1 µM [3]: 36%; cytotoxicity at 2.5 µM ([8]; 168 h, 7-day treatment): 2.7%; cytotoxicity at 5 µM ([8]; 168 h, 7-day treatment): 69.4%; cytotoxicity at 7.5 µM ([8]; 168 h, 7-day treatment): 99%; cytotoxicity at 10 µM ([8]; 168 h, 7-day treatment): 99%; Cell Death (%) in combination with AZD-6244 ([9]; AZD-6244 0 μM): 2.6%; Cell Death (%) in combination with AZD-6244 ([9]; AZD-6244 0.5 μM): 99%; effect in reducing the tumor volume [10]: significant effect in reducing the tumor volume
CNC(=O)c1cc(Oc2ccc(NC(=O)Nc3ccc(S(F)(F)(F)(F)F)cc3)c(F)c2)ccn1 [Example 10, 4-[3-fluoro-4-({[4-(pentafluoro-λ^6-sulfanyl)phenyl]carbamoyl}amino)phenoxy]-N-methylpyridine-2-carboxamide] | 3.4 | 7.6 | 19.5 | 2.7 | 4.2 | 4.8 | 18.3 | 54.6 | 56.7 | 1.9 | 2.2 | 17.2 | 87.6 | 93.7 | 1.8 | 1.9 | 9.4 | 11.3 | 68.3 | 2.2 | cytotoxicity at 2.5 µM ([8]; 168 h, 7-day treatment): 2.8%; cytotoxicity at 5 µM ([8]; 168 h, 7-day treatment): 99%; cytotoxicity at 7.5 µM ([8]; 168 h, 7-day treatment): 99%; cytotoxicity at 10 µM ([8]; 168 h, 7-day treatment): 99%; Cell Death (%) in combination with AZD-6244 ([9]; AZD-6244 0 μM): 1.7%; Cell Death (%) in combination with AZD-6244 ([9]; AZD-6244 0.5 μM): 94.6%; effect in reducing the tumor volume [10]: significant effect in reducing the tumor volume
